The source of these data is US11479539B2, “Small molecule modulators of the BTB domain of Keap1” (MedImmune Limited, priority 2017, dated 2022).

In this test the target is Keap1 (Homo sapiens (Human), UniProt Q14145). The test is described as follows: HEK293 ARE luciferase assay. The conditions noted are these: HEK-293 ARE firefly luciferase transiently transfected cells; 18 h incubation; mean of 1 to 20 individual measurements. It counts as cell-based. The gist of the method: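 Transiently transfected HEK-293 ARE firefly luciferase cells (10,000/well, DMEM with 10% FCS) exposed to compound, 10-point curve from 100 μM top, 0.3% DMSO, 18 h at 37 °C. SteadyGlo luminescence; activity normalised to 30 μM tBHQ (stimulator) and DMSO (neutral), activity threshold 50; means of 1-20 measurements.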
Keap1, sequence (Q14145 whole entry): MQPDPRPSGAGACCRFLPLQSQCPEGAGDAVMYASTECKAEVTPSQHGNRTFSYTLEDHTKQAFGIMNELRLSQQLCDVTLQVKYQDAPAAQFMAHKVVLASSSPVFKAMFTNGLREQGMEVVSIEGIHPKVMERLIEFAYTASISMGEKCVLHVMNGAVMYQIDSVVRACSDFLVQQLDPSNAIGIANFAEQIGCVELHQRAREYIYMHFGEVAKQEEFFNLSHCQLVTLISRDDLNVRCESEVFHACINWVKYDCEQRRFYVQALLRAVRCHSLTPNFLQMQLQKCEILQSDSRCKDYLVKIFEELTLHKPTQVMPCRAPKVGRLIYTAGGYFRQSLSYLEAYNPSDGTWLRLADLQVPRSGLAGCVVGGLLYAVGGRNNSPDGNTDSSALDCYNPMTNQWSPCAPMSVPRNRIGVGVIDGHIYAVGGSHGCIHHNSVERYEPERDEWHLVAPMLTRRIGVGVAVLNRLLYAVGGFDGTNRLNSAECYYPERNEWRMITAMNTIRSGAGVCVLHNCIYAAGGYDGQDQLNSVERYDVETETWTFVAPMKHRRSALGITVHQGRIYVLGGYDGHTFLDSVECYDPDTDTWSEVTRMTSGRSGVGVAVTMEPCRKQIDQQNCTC
On to `COC1(c2ncccc2Br)CC(C)(C)C(=O)C(C#N)=C1C` (centres unmarked) [Compound 108, 3-(3-bromo-2-pyridyl)-3-methoxy-2,5,5-trimethyl-6-oxo-cyclohexene-1-carbonitrile], for which the EC50 (commonly the concentration needed to bring the measured effect to its halfway point) stood at 1900 nM. That is a single-digit micromolar value.
In the case of `COC1(c2cccc(C3CC3)n2)C=C(C#N)C(=O)C(C)(C)C1` (centres unmarked) [Compound 109, 3-(6-cyclopropylpyridin-2-yl)-3-methoxy-5,5-dimethyl-6-oxocyclohex-1-ene-1-carbonitrile], a half-maximal effect (EC50) was put at 185 nM. Compared with the last compound, the EC50 is about 10-fold lower.
Compound `COC1(c2cccc(N3CCOCC3)n2)C=C(C#N)C(=O)C(C)(C)C1` (centres unmarked) [Compound 110, 3-methoxy-5,5-dimethyl-3-[6-(morpholin-4-yl)pyridin-2-yl]-6-oxocyclohex-1-ene-1-carbonitrile] came in with an EC50 of 109 nM.
In the case of `COC1(c2cccc(-c3cnn(C)c3)n2)C=C(C#N)C(=O)C(C)(C)C1` (centres unmarked) [Compound 111, 3-methoxy-5,5-dimethyl-3-[6-(1-methyl-1H-pyrazol-4-yl)pyridin-2-yl]-6-oxocyclohex-1-ene-1-carbonitrile], the EC50 came to 65 nM. Against the preceding compound, the EC50 is about 1.7-fold lower.
For `COC1(c2cc(-c3cnn(C)c3)ccn2)C=C(C#N)C(=O)C(C)(C)C1` (centres unmarked) [Compound 112, 3-methoxy-5,5-dimethyl-3-[4-(1-methyl-1H-pyrazol-4-yl)pyridin-2-yl]-6-oxocyclohex-1-ene-1-carbonitrile], the EC50 was determined as 371 nM.
On to `COC1(c2ccc(Br)cn2)C=C(C#N)C(=O)C(C)(C)C1` (centres unmarked) [Compound 113, 3-(5-bromopyridin-2-yl)-3-methoxy-5,5-dimethyl-6-oxocyclohex-1-ene-1-carbonitrile], for which the EC50 is 343 nM.
With `COC1(c2ncccc2Cl)C=C(C#N)C(=O)C(C)(C)C1` (centres unmarked) [Compound 114, 3-(3-chloropyridin-2-yl)-3-methoxy-5,5-dimethyl-6-oxocyclohex-1-ene-1-carbonitrile] the figure was 235 nM; with `COC1(c2ccc(-c3cnn(C)c3)cn2)C=C(C#N)C(=O)C(C)(C)C1` (centres unmarked) [Compound 115, 3-methoxy-5,5-dimethyl-3-[5-(1-methyl-1H-pyrazol-4-yl)pyridin-2-yl]-6-oxocyclohex-1-ene-1-carbonitrile], 106 nM; with `COC1(c2cccc(-c3cccnc3)n2)C=C(C#N)C(=O)C(C)(C)C1` (centres unmarked) [Compound 116, 3-([2,3′-bipyridin]-6-yl)-3-methoxy-5,5-dimethyl-6-oxocyclohex-1-ene-1-carbonitrile], 382 nM.
With `COC1(c2cccc(-c3cncnc3)n2)C=C(C#N)C(=O)C(C)(C)C1` (centres unmarked) [Compound 117, 3-methoxy-5,5-dimethyl-6-oxo-3-[6-(pyrimidin-5-yl)pyridin-2-yl]cyclohex-1-ene-1-carbonitrile] the figure was 34 nM; with `COC1(c2cccc(-c3ccccc3F)n2)C=C(C#N)C(=O)C(C)(C)C1` (centres unmarked) [Compound 118, 3-[6-(2-fluorophenyl)pyridin-2-yl)-3-methoxy-5,5-dimethyl-6-oxocyclohex-1-ene-1-carbonitrile], 355 nM.
Take `COc1ccccc1-c1cccc(C2(OC)C=C(C#N)C(=O)C(C)(C)C2)n1` (centres unmarked) [Compound 119, 3-methoxy-3-[6-(2-methoxyphenyl)pyridin-2-yl]-5,5-dimethyl-6-oxocyclohex-1-ene-1-carbonitrile]: the response was half-maximal at 141 nM (EC50).
In the case of `COc1ccccc1-c1cccc(C2(OC)C=C(C#N)C(=O)C(C)(C)C2)n1` (centres unmarked) [Compound 120, 3-methoxy-3-[6-(2-methoxyphenyl)pyridin-2-yl]-5,5-dimethyl-6-oxocyclohex-1-ene-1-carbonitrile] it was 245 nM.
In the case of `COC1(c2ncccc2C(F)(F)F)C=C(C#N)C(=O)C(C)(C)C1` (centres unmarked) [Compound 122, 3-methoxy-5,5-dimethyl-6-oxo-3-[3-(trifluoromethyl)pyridin-2-yl]cyclohex-1-ene-1-carbonitrile] it was 43 nM; in that of `COC1(c2ccc(F)cn2)C=C(C#N)C(=O)C(C)(C)C1` (centres unmarked) [Compound 123, 3-(5-fluoropyridin-2-yl)-3-methoxy-5,5-dimethyl-6-oxocyclohex-1-ene-1-carbonitrile], 61 nM.
In the case of `COC1(c2ncccc2C(F)F)C=C(C#N)C(=O)C(C)(C)C1` (centres unmarked) [Compound 124, 3-[3-(difluoromethyl)pyridin-2-yl]-3-methoxy-5,5-dimethyl-6-oxocyclohex-1-ene-1-carbonitrile] it was 27 nM; in that of `COC1(c2cccc(-c3nccs3)n2)C=C(C#N)C(=O)C(C)(C)C1` (centres unmarked) [Compound 125, 3-methoxy-5,5-dimethyl-6-oxo-3-[6-(1,3-thiazol-2-yl)pyridin-2-yl]cyclohex-1-ene-1-carbonitrile], 236 nM.
`COC1(c2cccc(-c3cnn(C)c3)n2)C=C(C#N)C(=O)C2(CC2)C1` (centres unmarked) [Compound 126, 7-methoxy-7-[6-(1-methyl-1H-pyrazol-4-yl)pyridin-2-yl]-4-oxospiro[2.5]oct-5-ene-5-carbonitrile] had an EC50 of 85 nM. This EC50 lies about 2.8-fold lower than the previous one.
In the case of `COC1(c2cccc(-c3cncnc3)n2)C=C(C#N)C(=O)C2(CC2)C1` (centres unmarked) [Compound 127, 7-methoxy-4-oxo-7-[6-(pyrimidin-5-yl)pyridin-2-yl]spiro[2.5]oct-5-ene-5-carbonitrile], a half-maximal response (EC50) required 267 nM. Compared with the last compound, the EC50 is about 3.1-fold higher.
`COC1(c2cccc(-c3cnc(C)nc3)n2)C=C(C#N)C(=O)C2(CC2)C1` (centres unmarked) [Compound 128, 7-methoxy-7-[6-(2-methylpyrimidin-5-yl)pyridin-2-yl]-4-oxospiro[2.5]oct-5-ene-5-carbonitrile] showed an EC50 of 145 nM. Against the preceding compound, the EC50 is about 1.8-fold lower.
Take `COC1(c2cccc(-c3ccnn3C)n2)C=C(C#N)C(=O)C2(CC2)C1` (centres unmarked) [Compound 129, 7-methoxy-7-[6-(1-methyl-1H-pyrazol-5-yl)pyridin-2-yl]-4-oxospiro[2.5]oct-5-ene-5-carbonitrile]: the EC50 came to 136 nM.
In the case of `COC1(c2cccc(-c3c(C)noc3C)n2)C=C(C#N)C(=O)C2(CC2)C1` (centres unmarked) [Compound 130, 7-[6-(3,5-dimethyl-1,2-oxazol-4-yl)pyridin-2-yl]-7-methoxy-4-oxospiro[2.5]oct-5-ene-5-carbonitrile] it was 153 nM; in that of `COC1(c2cncc(C)n2)C=C(C#N)C(=O)C2(CC2)C1` (centres unmarked) [Compound 131, 7-methoxy-7-(6-methylpyrazin-2-yl)-4-oxospiro[2.5]oct-5-ene-5-carbonitrile], 464 nM.
With `COC1(c2ncccc2C(F)F)C=C(C#N)C(=O)C2(CC2)C1` (centres unmarked) [Compound 132, 7-[3-(difluoromethyl)pyridin-2-yl]-7-methoxy-4-oxospiro[2.5]oct-5-ene-5-carbonitrile], the midpoint of the response, the EC50, lay at 150 nM.
Compound `COC1(c2ncccc2C(F)(F)F)C=C(C#N)C(=O)C2(CC2)C1` (centres unmarked) [Compound 133, 7-methoxy-4-oxo-7-[3-(trifluoromethyl)pyridin-2-yl]spiro[2.5]oct-5-ene-5-carbonitrile] registered an EC50 of 76 nM.
Take `COC1(c2ccccn2)C=C(C#N)C(=O)C2(CC2)C1` (centres unmarked) [Compound 135, 7-methoxy-4-oxo-7-(pyridin-2-yl)spiro[2.5]oct-5-ene-5-carbonitrile]: the response was half-maximal at 244 nM (EC50). Compared with the last compound, the EC50 is about 3.2-fold higher.
`COC1(c2ncc(F)cc2C)C=C(C#N)C(=O)C(C)(C)C1` (centres unmarked) [Compound 137, 3-(5-fluoro-3-methylpyridin-2-yl)-3-methoxy-5,5-dimethyl-6-oxocyclohex-1-ene-1-carbonitrile] registered an EC50 of 47 nM.
`COC1(c2sccc2C)C=C(C#N)C(=O)C(C)(C)C1` (centres unmarked) [Compound 139, 3-methoxy-5,5-dimethyl-3-(3-methylthiophen-2-yl)-6-oxocyclohex-1-ene-1-carbonitrile] yielded an EC50 of 381 nM.
For the compound `COC1(c2nc(C)cs2)C=C(C#N)C(=O)C2(CC2)C1` (centres unmarked) [Compound 140, 7-methoxy-7-(4-methyl-1,3-thiazol-2-yl)-4-oxospiro[2.5]oct-5-ene-5-carbonitrile], the EC50 amounted to 140 nM. This EC50 lies about 2.7-fold lower than the previous one.
With `COC1(c2nc(C(F)(F)F)cs2)C=C(C#N)C(=O)C(C)(C)C1` (centres unmarked) [Compound 141, 3-methoxy-5,5-dimethyl-6-oxo-3-[4-(trifluoromethyl)-1,3-thiazol-2-yl]cyclohex-1-ene-1-carbonitrile] the figure was 335 nM; with `COC1(c2nc(C)cs2)C=C(C#N)C(=O)C(C)(C)C1` (centres unmarked) [Compound 142, 3-methoxy-5,5-dimethyl-3-(4-methyl-1,3-thiazol-2-yl)-6-oxocyclohex-1-ene-1-carbonitrile], 60 nM; with `CCOC1(c2ncccc2C(F)(F)F)C=C(C#N)C(=O)C(C)(C)C1` (centres unmarked) [Compound 143, 3-ethoxy-5,5-dimethyl-6-oxo-3-[3-(trifluoromethyl)pyridin-2-yl]cyclohex-1-ene-1-carbonitrile], 139 nM.
Take `COC1(c2nccs2)C=C(C#N)C(=O)C(C)(C)C1` (centres unmarked) [Compound 144, 3-methoxy-5,5-dimethyl-6-oxo-3-(1,3-thiazol-2-yl)cyclohex-1-ene-1-carbonitrile]: the EC50 was determined as 389 nM. This EC50 lies about 2.8-fold higher than the previous one.
Compound `CCOC1(c2ccc(F)cn2)C=C(C#N)C(=O)C(C)(C)C1` (centres unmarked) [Compound 145, 3-ethoxy-3-(5-fluoropyridin-2-yl)-5,5-dimethyl-6-oxocyclohex-1-ene-1-carbonitrile] gave an EC50 of 65 nM.
With `COC1(c2ncccc2OC(F)(F)F)C=C(C#N)C(=O)C(C)(C)C1` (centres unmarked) [Compound 147, 3-methoxy-5,5-dimethyl-6-oxo-3-[3-(trifluoromethoxy)pyridin-2-yl]cyclohex-1-ene-1-carbonitrile], the concentration for a half-maximal effect (EC50) amounted to 22 nM.
As for `COC1(c2ncccc2C(F)(F)F)C=C(C#N)C(=O)C2(CCCC2)C1` (centres unmarked) [Compound 148, 9-methoxy-6-oxo-9-[3-(trifluoromethyl)pyridin-2-yl]spiro[4.5]dec-7-ene-7-carbonitrile], the EC50 came out at 252 nM.
For the compound `COC1(c2ncc(F)cc2C)C=C(C#N)C(=O)C2(CCCC2)C1` (centres unmarked) [Compound 149, 9-(5-fluoro-3-methylpyridin-2-yl)-9-methoxy-6-oxospiro[4.5]dec-7-ene-7-carbonitrile], it took 201 nM to reach a half-maximal effect (EC50).
Regarding `COC1(c2scnc2C)C=C(C#N)C(=O)C(C)(C)C1` (centres unmarked) [Compound 150, 3-methoxy-5,5-dimethyl-3-(4-methyl-1,3-thiazol-5-yl)-6-oxocyclohex-1-ene-1-carbonitrile], the EC50 was 147 nM. This EC50 and that of the compound before are within 1.5-fold of each other.
